According to ChEMBL document CHEMBL3885881, “DrugMatrix”:

Organism: Rattus norvegicus
Assay: DrugMatrix - Regimen: Daily Repeat
Assay type: toxicity, organism-based, Sprague-Dawley
Design: regimen Daily Repeat, gender Male, age 6-8 weeks
Conditions: in vivo, po, route oral GAVAGE, vehicle 100 % SALINE; for ABSOLUTE BASOPHIL / ABSOLUTE EOSINOPHIL / ABSOLUTE LYMPHOCYTE / ABSOLUTE MONOCYTE / ABSOLUTE SEGMENTED NEUTROPHIL / BASOPHIL / EOSINOPHIL / ERYTHROCYTE COUNT / HEMATOCRIT / HEMOGLOBIN / LEUKOCYTE COUNT / LYMPHOCYTE / MEAN CORPUSCULAR HEMOGLOBIN / MEAN CORPUSCULAR HEMOGLOBIN CONCENTRATION / MEAN CORPUSCULAR VOLUME / MONOCYTE / NEUTROPHIL / NUCLEATED RED BLOOD CELLS / PLATELET COUNT: tissue Blood; for ALANINE AMINOTRANSFERASE / ALBUMIN / ALKALINE PHOSPHATASE / ASPARTATE AMINOTRANSFERASE / BLOOD UREA NITROGEN / CARBON DIOXIDE / CHLORIDE / CHOLESTEROL / CREATINE PHOSPHOKINASE / CREATININE / GLUCOSE / LACTATE DEHYDROGENASE / LIPASE / PHOSPHORUS / POTASSIUM / SODIUM / TOTAL BILIRUBIN / TOTAL PROTEIN / URIC ACID: tissue Plasma
[1] = 0 mg/kg, 72 h, dose level Control, time 3 day
[2] = 0 mg/kg, […], dose level Control, time 7 day
[3] = 3000 mg/kg, 72 h, dose level Low, time 3 day

## CCO [ALCOHOL]
[1]
  ABSOLUTE BASOPHIL: 0 CELLS/uL
  ABSOLUTE EOSINOPHIL: 66 CELLS/uL
  ABSOLUTE LYMPHOCYTE: 11922.83 CELLS/uL
  ABSOLUTE MONOCYTE: 401.5 CELLS/uL
  ABSOLUTE SEGMENTED NEUTROPHIL: 1526.33 CELLS/uL
  BASOPHIL: 0%
  EOSINOPHIL: 0.5%
  ERYTHROCYTE COUNT: 5.62 x10E6/uL
  HEMATOCRIT: 37.17%
  HEMOGLOBIN: 13.53 G/DL
  LEUKOCYTE COUNT: 13.92 x10E3/uL
  LYMPHOCYTE: 86.17%
  MEAN CORPUSCULAR HEMOGLOBIN: 24.07 pg
  MEAN CORPUSCULAR HEMOGLOBIN CONCENTRATION: 36.42 G/DL
  MEAN CORPUSCULAR VOLUME: 66.1 fL
  MONOCYTE: 3%
  NEUTROPHIL: 10.33%
  NUCLEATED RED BLOOD CELLS: 0 /100WBC
  PLATELET COUNT: 1107 x10E3/uL
  ALANINE AMINOTRANSFERASE: 45.33 u/L
  ALBUMIN: 4.3 G/DL
  ALKALINE PHOSPHATASE: 321.33 u/L
  ASPARTATE AMINOTRANSFERASE: 77.33 u/L
  BLOOD UREA NITROGEN: 14.33 mg/dL
  CARBON DIOXIDE: 32.33 mmol/L
  CHLORIDE: 99.67 MEQ/L
  CHOLESTEROL: 82.33 mg/dL
  CREATINE PHOSPHOKINASE: 205.5 u/L
  CREATININE: 0.19 mg/dL
  GLUCOSE: 150.83 mg/dL
  LACTATE DEHYDROGENASE: 88.17 u/L
  LIPASE: 10.83 u/L
  PHOSPHORUS: 10.9 mg/dL
  POTASSIUM: 5.83 MEQ/L
  SODIUM: 145.15 MEQ/L
  TOTAL BILIRUBIN: 0.12 mg/dL
  TOTAL PROTEIN: 6.22 G/DL
  URIC ACID: 1 mg/dL
[2]
  ABSOLUTE BASOPHIL: 0 CELLS/uL
  ABSOLUTE EOSINOPHIL: 22 CELLS/uL
  ABSOLUTE LYMPHOCYTE: 11105.17 CELLS/uL
  ABSOLUTE MONOCYTE: 258.17 CELLS/uL
  ABSOLUTE SEGMENTED NEUTROPHIL: 881.33 CELLS/uL
  BASOPHIL: 0%
  EOSINOPHIL: 0.17%
  ERYTHROCYTE COUNT: 5.29 x10E6/uL
  HEMATOCRIT: 34.03%
  HEMOGLOBIN: 13.67 G/DL
  LEUKOCYTE COUNT: 12.27 x10E3/uL
  LYMPHOCYTE: 90.83%
  MEAN CORPUSCULAR HEMOGLOBIN: 25.9 pg
  MEAN CORPUSCULAR HEMOGLOBIN CONCENTRATION: 40.18 G/DL
  MEAN CORPUSCULAR VOLUME: 64.42 fL
  MONOCYTE: 2.17%
  NEUTROPHIL: 6.83%
  NUCLEATED RED BLOOD CELLS: 0 /100WBC
  PLATELET COUNT: 1159.83 x10E3/uL
  ALANINE AMINOTRANSFERASE: 45.83 u/L
  ALBUMIN: 4.1 G/DL
  ALKALINE PHOSPHATASE: 240 u/L
  ASPARTATE AMINOTRANSFERASE: 88.67 u/L
  BLOOD UREA NITROGEN: 13.67 mg/dL
  CARBON DIOXIDE: 31.83 mmol/L
  CHLORIDE: 96.83 MEQ/L
  CHOLESTEROL: 71.17 mg/dL
  CREATINE PHOSPHOKINASE: 202.5 u/L
  CREATININE: 0.22 mg/dL
  GLUCOSE: 132.67 mg/dL
  LACTATE DEHYDROGENASE: 107.17 u/L
  LIPASE: 10.5 u/L
  PHOSPHORUS: 10.47 mg/dL
  POTASSIUM: 6.23 MEQ/L
  SODIUM: 140.73 MEQ/L
  TOTAL BILIRUBIN: 0.12 mg/dL
  TOTAL PROTEIN: 6.18 G/DL
  URIC ACID: 0.87 mg/dL
[3]
  ABSOLUTE BASOPHIL: 0 CELLS/uL
  ABSOLUTE EOSINOPHIL: 0 CELLS/uL
  ABSOLUTE LYMPHOCYTE: 9478 CELLS/uL
  ABSOLUTE MONOCYTE: 154.17 CELLS/uL
  ABSOLUTE SEGMENTED NEUTROPHIL: 701.17 CELLS/uL
  BASOPHIL: 0%
  EOSINOPHIL: 0%
  ERYTHROCYTE COUNT: 5.61 x10E6/uL
  HEMATOCRIT: 37.43%
  HEMOGLOBIN: 13.38 G/DL
  LEUKOCYTE COUNT: 10.33 x10E3/uL
  LYMPHOCYTE: 91.5%
  MEAN CORPUSCULAR HEMOGLOBIN: 23.87 pg
  MEAN CORPUSCULAR HEMOGLOBIN CONCENTRATION: 35.78 G/DL
  MEAN CORPUSCULAR VOLUME: 66.65 fL
  MONOCYTE: 1.5%
  NEUTROPHIL: 7%
  NUCLEATED RED BLOOD CELLS: 0 /100WBC
  PLATELET COUNT: 1014.67 x10E3/uL
  ALANINE AMINOTRANSFERASE: 55.33 u/L
  ALBUMIN: 4.22 G/DL
  ALKALINE PHOSPHATASE: 351.5 u/L
  ASPARTATE AMINOTRANSFERASE: 80.33 u/L
  BLOOD UREA NITROGEN: 10.17 mg/dL
  CARBON DIOXIDE: 30.17 mmol/L
  CHLORIDE: 99.8 MEQ/L
  CHOLESTEROL: 73.17 mg/dL
  CREATINE PHOSPHOKINASE: 216.33 u/L
  CREATININE: 0.24 mg/dL
  GLUCOSE: 152.67 mg/dL
  LACTATE DEHYDROGENASE: 102.83 u/L
  LIPASE: 8.17 u/L
  PHOSPHORUS: 10.45 mg/dL
  POTASSIUM: 5.55 MEQ/L
  SODIUM: 144.46 MEQ/L
  TOTAL BILIRUBIN: 0.1 mg/dL
  TOTAL PROTEIN: 6.13 G/DL
  URIC ACID: 0.87 mg/dL
